# Laboratory results as given in ChEMBL document CHEMBL5291721, “A preclinical secondary pharmacology resource illuminates target-adverse drug reaction associations of marketed drugs” (Nat Commun, 2023).
# Experiments:
# [1] = target: T1, Thromboxane A2 receptor (Homo sapiens, UniProt P21731); type: functional, cell-based
# T1 sequence (P21731 whole entry): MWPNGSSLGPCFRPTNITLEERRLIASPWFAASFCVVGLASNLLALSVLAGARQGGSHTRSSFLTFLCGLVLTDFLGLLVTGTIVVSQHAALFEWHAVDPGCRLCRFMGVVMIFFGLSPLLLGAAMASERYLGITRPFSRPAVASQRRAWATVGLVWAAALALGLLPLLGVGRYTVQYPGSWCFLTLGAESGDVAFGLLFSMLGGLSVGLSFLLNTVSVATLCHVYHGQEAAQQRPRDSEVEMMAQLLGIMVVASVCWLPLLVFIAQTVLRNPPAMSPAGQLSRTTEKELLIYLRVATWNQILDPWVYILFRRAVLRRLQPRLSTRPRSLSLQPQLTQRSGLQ
# [2] = target: Beta-1 adrenergic receptor (Homo sapiens, UniProt P08588); type: functional
# [3] = target: T2, Amine oxidase [flavin-containing] A (Homo sapiens, UniProt P21397); type: functional
# T2 sequence (P21397 whole entry): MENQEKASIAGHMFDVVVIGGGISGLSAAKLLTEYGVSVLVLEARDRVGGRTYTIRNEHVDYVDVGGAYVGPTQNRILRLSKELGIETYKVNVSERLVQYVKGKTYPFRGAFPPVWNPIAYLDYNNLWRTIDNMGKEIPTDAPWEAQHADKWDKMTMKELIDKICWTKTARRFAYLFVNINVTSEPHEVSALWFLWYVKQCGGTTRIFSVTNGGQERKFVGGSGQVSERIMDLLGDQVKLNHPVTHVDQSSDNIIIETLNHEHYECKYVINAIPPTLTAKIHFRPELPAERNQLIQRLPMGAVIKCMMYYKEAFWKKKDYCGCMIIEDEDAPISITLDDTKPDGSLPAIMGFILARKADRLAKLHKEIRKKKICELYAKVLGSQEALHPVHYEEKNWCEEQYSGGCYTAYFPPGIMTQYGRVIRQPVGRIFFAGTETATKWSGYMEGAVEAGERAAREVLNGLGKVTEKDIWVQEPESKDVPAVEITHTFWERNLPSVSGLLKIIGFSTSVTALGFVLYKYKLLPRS
# [4] = target: Cannabinoid receptor 1 (Homo sapiens, UniProt P21554)
# [5] = target: T3, Progesterone receptor (Homo sapiens, UniProt P06401); type: functional
# T3 sequence (P06401 whole entry): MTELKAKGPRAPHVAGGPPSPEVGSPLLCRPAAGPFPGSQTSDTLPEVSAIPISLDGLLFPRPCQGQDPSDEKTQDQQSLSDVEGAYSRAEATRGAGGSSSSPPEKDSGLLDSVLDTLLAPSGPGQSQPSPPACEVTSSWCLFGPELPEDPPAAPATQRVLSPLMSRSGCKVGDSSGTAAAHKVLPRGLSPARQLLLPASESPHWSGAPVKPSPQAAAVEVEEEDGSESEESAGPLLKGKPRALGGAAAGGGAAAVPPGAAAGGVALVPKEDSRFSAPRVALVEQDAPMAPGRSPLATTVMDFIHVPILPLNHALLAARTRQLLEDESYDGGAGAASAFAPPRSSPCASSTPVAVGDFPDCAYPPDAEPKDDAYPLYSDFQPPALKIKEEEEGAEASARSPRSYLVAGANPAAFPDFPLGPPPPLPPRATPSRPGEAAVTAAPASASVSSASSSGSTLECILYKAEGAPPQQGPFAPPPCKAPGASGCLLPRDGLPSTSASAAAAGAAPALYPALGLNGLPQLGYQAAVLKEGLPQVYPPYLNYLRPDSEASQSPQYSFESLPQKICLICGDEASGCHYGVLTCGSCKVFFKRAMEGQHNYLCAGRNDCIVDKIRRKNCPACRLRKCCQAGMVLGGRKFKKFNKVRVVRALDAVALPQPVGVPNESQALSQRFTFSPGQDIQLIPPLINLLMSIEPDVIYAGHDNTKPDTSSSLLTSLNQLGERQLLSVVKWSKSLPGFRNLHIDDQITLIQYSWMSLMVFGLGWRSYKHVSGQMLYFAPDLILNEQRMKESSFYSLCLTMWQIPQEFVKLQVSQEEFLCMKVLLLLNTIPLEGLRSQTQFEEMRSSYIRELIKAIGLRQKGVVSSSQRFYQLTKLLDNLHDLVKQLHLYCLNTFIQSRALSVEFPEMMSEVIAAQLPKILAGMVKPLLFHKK
# [6] = target: Muscarinic acetylcholine receptor M3 (Homo sapiens, UniProt P20309)
# [7] = target: Sodium-dependent noradrenaline transporter (Homo sapiens, UniProt P23975)
# [8] = target: Sodium-dependent dopamine transporter (Homo sapiens, UniProt Q01959)
# [9] = target: D(3) dopamine receptor (Homo sapiens, UniProt P35462)
# Note: assay procedure not described here.
# Sodium-dependent dopamine transporter, sequence (Q01959 whole entry): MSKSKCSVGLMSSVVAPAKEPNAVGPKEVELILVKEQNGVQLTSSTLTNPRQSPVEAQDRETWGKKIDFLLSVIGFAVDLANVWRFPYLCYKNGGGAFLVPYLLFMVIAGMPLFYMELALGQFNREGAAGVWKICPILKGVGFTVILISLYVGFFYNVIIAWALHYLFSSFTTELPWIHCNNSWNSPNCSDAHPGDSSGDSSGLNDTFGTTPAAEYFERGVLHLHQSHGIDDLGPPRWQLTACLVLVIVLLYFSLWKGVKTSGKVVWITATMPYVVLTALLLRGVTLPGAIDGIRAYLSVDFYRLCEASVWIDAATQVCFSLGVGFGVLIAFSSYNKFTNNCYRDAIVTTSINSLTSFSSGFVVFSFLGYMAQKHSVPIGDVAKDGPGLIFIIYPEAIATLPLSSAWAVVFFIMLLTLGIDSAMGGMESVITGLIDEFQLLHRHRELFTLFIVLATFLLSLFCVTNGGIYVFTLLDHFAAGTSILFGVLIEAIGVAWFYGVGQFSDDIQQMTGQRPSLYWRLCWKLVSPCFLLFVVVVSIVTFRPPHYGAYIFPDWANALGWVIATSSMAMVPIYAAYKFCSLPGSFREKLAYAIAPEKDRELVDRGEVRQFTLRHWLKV
# Muscarinic acetylcholine receptor M3, sequence (P20309 whole entry): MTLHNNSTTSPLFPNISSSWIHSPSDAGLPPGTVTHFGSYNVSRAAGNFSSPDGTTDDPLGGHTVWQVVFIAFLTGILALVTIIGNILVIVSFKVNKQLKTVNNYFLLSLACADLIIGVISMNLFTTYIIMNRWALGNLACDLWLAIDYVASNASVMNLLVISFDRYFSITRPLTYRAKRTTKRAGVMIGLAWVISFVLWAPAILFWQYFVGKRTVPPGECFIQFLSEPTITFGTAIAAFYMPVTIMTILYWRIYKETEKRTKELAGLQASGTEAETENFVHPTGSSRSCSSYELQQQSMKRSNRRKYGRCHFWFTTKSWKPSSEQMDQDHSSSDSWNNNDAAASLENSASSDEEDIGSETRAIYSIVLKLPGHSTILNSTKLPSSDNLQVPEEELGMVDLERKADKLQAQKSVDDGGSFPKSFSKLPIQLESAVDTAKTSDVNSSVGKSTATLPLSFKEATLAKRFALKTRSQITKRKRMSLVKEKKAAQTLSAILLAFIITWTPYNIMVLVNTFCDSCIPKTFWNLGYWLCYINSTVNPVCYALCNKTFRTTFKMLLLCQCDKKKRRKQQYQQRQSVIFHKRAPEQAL
# Beta-1 adrenergic receptor, sequence (P08588 whole entry): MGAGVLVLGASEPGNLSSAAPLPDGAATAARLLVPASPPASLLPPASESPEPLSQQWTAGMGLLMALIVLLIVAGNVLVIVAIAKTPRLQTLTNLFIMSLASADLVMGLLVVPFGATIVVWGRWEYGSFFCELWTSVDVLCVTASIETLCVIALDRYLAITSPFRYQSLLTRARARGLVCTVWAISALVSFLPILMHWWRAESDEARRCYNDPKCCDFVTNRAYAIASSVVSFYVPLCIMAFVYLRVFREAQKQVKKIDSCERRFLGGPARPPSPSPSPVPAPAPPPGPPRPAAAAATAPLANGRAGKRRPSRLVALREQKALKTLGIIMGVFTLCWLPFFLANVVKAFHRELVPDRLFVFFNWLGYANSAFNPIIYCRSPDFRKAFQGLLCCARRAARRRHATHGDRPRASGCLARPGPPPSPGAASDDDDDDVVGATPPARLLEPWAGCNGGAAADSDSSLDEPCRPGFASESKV
# Cannabinoid receptor 1, sequence (P21554 whole entry): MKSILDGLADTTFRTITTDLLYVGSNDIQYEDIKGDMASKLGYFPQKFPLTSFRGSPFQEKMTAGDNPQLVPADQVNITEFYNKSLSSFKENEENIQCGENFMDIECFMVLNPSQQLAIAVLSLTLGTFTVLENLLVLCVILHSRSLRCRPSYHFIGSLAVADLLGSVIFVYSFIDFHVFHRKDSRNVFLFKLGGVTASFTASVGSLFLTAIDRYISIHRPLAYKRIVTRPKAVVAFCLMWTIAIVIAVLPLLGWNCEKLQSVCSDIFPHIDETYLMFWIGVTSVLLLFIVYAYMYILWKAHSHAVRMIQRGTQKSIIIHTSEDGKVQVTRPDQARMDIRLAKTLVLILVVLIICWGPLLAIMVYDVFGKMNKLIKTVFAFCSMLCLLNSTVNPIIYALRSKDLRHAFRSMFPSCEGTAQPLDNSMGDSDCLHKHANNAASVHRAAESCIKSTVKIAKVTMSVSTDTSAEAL
# Sodium-dependent noradrenaline transporter, sequence (P23975 whole entry): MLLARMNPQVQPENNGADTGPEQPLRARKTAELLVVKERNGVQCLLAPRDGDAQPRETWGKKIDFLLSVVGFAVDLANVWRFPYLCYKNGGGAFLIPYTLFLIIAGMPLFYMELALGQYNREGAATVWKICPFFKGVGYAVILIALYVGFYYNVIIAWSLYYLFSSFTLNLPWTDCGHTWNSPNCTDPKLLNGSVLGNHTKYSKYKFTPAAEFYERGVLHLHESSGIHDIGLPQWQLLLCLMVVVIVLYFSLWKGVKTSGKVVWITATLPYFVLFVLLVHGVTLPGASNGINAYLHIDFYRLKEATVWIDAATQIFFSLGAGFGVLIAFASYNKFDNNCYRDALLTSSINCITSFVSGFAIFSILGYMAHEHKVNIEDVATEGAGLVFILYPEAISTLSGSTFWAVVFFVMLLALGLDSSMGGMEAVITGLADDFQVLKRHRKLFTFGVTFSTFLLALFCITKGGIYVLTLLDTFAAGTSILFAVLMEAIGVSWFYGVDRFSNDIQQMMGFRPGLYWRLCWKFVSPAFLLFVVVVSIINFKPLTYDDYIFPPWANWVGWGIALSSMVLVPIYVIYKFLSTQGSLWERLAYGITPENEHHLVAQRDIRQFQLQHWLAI
# D(3) dopamine receptor, sequence (P35462 whole entry): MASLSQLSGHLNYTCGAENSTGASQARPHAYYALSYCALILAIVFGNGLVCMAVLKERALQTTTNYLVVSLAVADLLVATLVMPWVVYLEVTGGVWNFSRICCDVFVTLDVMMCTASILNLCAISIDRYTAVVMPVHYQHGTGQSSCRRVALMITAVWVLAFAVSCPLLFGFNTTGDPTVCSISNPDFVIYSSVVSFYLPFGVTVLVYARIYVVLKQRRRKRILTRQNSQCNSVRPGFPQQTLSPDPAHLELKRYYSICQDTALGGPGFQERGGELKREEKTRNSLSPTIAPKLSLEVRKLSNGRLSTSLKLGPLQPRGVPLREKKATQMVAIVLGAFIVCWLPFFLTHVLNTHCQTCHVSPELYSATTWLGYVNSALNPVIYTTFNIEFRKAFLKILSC
structure (smiles),measurement,setting,value
Cc1cnc(C(=O)NCCc2ccc(S(=O)(=O)NC(=O)NC3CCCCC3)cc2)cn1 [GLIPIZIDE],AC50,[1],> 30 µM
same,AC50,[2],> 10 µM
same,AC50,[3],> 30 µM
CCOC(=O)C1=C(C)NC(C)=C(C(=O)OC)C1c1cccc([N+](=O)[O-])c1 (stereo not given) [NITRENDIPINE],AC50,[2],> 10 µM
same,AC50,[4],> 10 µM
CCCN[C@H]1CCc2nc(N)sc2C1 [PRAMIPEXOLE],AC50,[2],> 30 µM
same,AC50,[5],> 30 µM
same,AC50,[6],> 30 µM
COCC1=C(C(=O)O)N2C(=O)[C@@H](NC(=O)/C(=N\OC)c3csc(N)n3)[C@H]2SC1 [CEFPODOXIME],AC50,[2],> 30 µM
same,AC50,[5],> 30 µM
same,AC50,[6],> 30 µM
CC(C)(C)NC[C@H](O)COc1cccc2c1CCCC2=O [LEVOBUNOLOL],AC50,[1],> 30 µM
same,AC50,[7],> 30 µM
same,AC50,[8],> 30 µM
same,AC50,[9],> 30 µM
same,AC50,[3],> 30 µM
Clc1ccc2c(N3CCN(CCCN4CCN(c5ccnc6cc(Cl)ccc56)CC4)CC3)ccnc2c1 [PIPERAQUINE],AC50,[2],> 30 µM
same,AC50,[5],> 30 µM
same,AC50,[6],> 30 µM
CC(=O)N[C@@H](CS)C(=O)O [ACETYLCYSTEINE],AC50,[2],> 30 µM
same,AC50,[5],> 30 µM
same,AC50,[6],> 30 µM
CC(C)NCC(O)c1ccc(O)c(O)c1 (stereo not given) [ISOPROTERENOL],AC50,[5],> 30 µM
same,AC50,[4],> 10 µM
C[C@]12CCC(=O)C(O)=C1CC[C@@H]1[C@@H]2CC[C@]2(C)C(=O)CC[C@@H]12 [FORMESTANE],AC50,[2],> 30 µM
same,AC50,[5],3.7 µM
same,AC50,[6],> 30 µM
COc1ccc(CN(CCN(C)C)c2ccccn2)cc1 [PYRILAMINE],AC50,[1],> 30 µM
same,AC50,[7],> 30 µM
same,AC50,[8],2.41 µM
same,AC50,[3],> 30 µM
Cc1cc2cc3c(C)cc(=O)oc3c(C)c2o1 [TRIOXSALEN],AC50,[2],> 10 µM
same,AC50,[5],> 30 µM
same,AC50,[4],> 10 µM
CCCCC(=O)O[C@]1(C(=O)CO)[C@@H](C)C[C@H]2[C@@H]3CCC4=CC(=O)C=C[C@]4(C)[C@@]3(F)[C@@H](O)C[C@@]21C [BETAMETHASONE VALERATE],AC50,[2],> 10 µM
same,AC50,[4],> 10 µM
same,AC50,[6],> 30 µM
Cc1cc(C(C)(C)C)cc(C)c1CC1=NCCN1 [XYLOMETAZOLINE],AC50,[2],> 30 µM
same,AC50,[5],> 30 µM
same,AC50,[6],10 µM
CCCCC1C(=O)N(c2ccccc2)N(c2ccccc2)C1=O [PHENYLBUTAZONE],AC50,[2],> 10 µM
same,AC50,[5],> 10 µM
same,AC50,[4],> 10 µM
C/N=C(\NC)NCc1ccccc1 [BETHANIDINE],AC50,[5],> 30 µM
same,AC50,[6],> 30 µM
CC(C(=O)O)c1ccc(CC2CCCC2=O)cc1 (stereo not given) [LOXOPROFEN],AC50,[2],> 30 µM
same,AC50,[5],> 30 µM
O=C(O)c1cn(C2CC2)c2cc(N3CCNCC3)c(F)cc2c1=O [CIPROFLOXACIN],AC50,[1],> 30 µM
Cc1c(N(C)CS(=O)(=O)O)c(=O)n(-c2ccccc2)n1C [METAMIZOLE],AC50,[1],> 30 µM
same,AC50,[7],> 30 µM
same,AC50,[8],> 30 µM
same,AC50,[9],> 30 µM
same,AC50,[3],> 30 µM
CN(C)CCCNc1c2ccccc2nc2cccc([N+](=O)[O-])c12 [NITRACRINE],AC50,[2],> 30 µM
same,AC50,[5],> 30 µM
same,AC50,[6],19 µM
CNC1=Nc2ccc(Cl)cc2C(c2ccccc2)=[N+]([O-])C1 [CHLORDIAZEPOXIDE],AC50,[2],> 10 µM
same,AC50,[4],> 10 µM
CCC(C)C1(CC)C(=O)NC(=O)NC1=O (stereo not given) [BUTABARBITAL],AC50,[2],> 30 µM
same,AC50,[5],> 30 µM
